Patent US20200268786A1, “RNA CONTAINING COMPOSITIONS AND METHODS OF THEIR USE” (Icahn School of Medicine at Mount Sinai, priority 2015, published 2020)

Tested on: human monocyte derived DCs (moDCs)
Assay: cytokine production of human moDCs stimulated with ncRNA (DOTAP liposomal transfection or none)
Assay type: cell-based
Conditions: DOTAP liposomal transfection, 2 ug/ml ncRNA
Method: PCR products were purified by PCR-Cleanup (Qiagen) and controlled by electrophoresis (0.8% Agarose gel). RNAs were generated by in vitro transcription using the mMESSAGE mMACHINE T7 ultra kit (Ambion) followed by a capping and short polyA reaction. RNAs were then purified using RNA-cleanup (Qiagen), quantified using a nanodrop, and checked by electrophoresis after denaturation at 65° C. for 10 minutes (1 5% Agarose gel).
MoDCs and imBM were both stimulated by i-ncRNA in the same way. The culturing of these cells is described below. Briefly, cells were plated in 96 flat well plates at 200,000 cells per well for primary cells (MoDCs) and 100,000 cells per well for lines (IMBM). i-ncRNA were transfected via liposomes formed using DOTAP (Roche Life Science) at a ratio of 1 μg DNA per 6 μl DOTAP diluted in HBS following the user-guide recommendations. The cells were stimulated using 2 μg/ml of purified i-ncRNA versus 10 μg/ml total RNA. To stimulate the TLR4 pathway, 100 ng/ml Ultrapure LPS (Invivogen) was used for TLR2: 500 ng/ml Pam2CSK4 (Invivogen) for TLR3: 2 μg/ml HMW PolyIC (Invivogen) TLR7/8: 1 μg/ml CLO97 (Invivogen) and 100 ng/ml R848 (Invivogen) TLR9: CpG B-ODN 1826 3 μM or STING CDN 5 μg/ml (Aduro).
Human moDCs: Human monocyte derived DCs were differentiated as previously described (Frleta et al., “HIV-1 Infection-Induced Apoptotic Microparticles Inhibit Human DCs via CD44,” J. Clinical Invest. 122:4685 (2012), which is hereby incorporated by reference in its entirety). Briefly, PBMCs were prepared by centrifugation over Ficoll-Hypaque gradients (BioWhittaker) from healthy donor buffy coats (New York Blood Center). Monocytes were isolated from PBMCs by adherence and then treated with 100 U/ml GM-CSF (Leukine Sanofi Oncology) and 300 U/ml IL-4 (RandD) in RPMI plus 5% human AB serum (Gemini Bio Products). Differentiation media was renewed on day 2 and day 4 of culture. Mature moDCs were harvested for use on days 5 to 7. For all experiments, harvested DCs were washed and equilibrated in serum-free X-Vivo 15 media (Lonza).

| Compound | IL-6 production | IL-12 production | TNFalpha production |
| --- | --- | --- | --- |
| CCOCc1nc2c(N)nc3ccccc3c2n1CC(C)(C)O [R848] | induced a cellular inflammatory response | induced a cellular inflammatory response | induced a cellular inflammatory response |
| Poly-IC | induced a cellular inflammatory response | induced a cellular inflammatory response | induced a cellular inflammatory response |
